Drawing on patent US20050043341A1, “3-'Hydroxy-(-4-trifluoromethylphenyl)-methyl-7-spirocyclobutyl-5,6,7 8-tetrahydroquinolin-5-ol derivatives and the use of the same as cholesterol ester transfer protein (cetp) inhibitors” (priority 2001, published 2005), this text covers IC50 and inhibition for three compounds.

Like-named read-outs stand apart in the source and are kept apart here.

For one experiment, the target named is T1, CETP (Homo sapiens, UniProt P11597).
T1 construct: CETP is obtained in partially purified form from human plasma; from tissue; host or cells: human plasma
T1 sequence (P11597 18-493): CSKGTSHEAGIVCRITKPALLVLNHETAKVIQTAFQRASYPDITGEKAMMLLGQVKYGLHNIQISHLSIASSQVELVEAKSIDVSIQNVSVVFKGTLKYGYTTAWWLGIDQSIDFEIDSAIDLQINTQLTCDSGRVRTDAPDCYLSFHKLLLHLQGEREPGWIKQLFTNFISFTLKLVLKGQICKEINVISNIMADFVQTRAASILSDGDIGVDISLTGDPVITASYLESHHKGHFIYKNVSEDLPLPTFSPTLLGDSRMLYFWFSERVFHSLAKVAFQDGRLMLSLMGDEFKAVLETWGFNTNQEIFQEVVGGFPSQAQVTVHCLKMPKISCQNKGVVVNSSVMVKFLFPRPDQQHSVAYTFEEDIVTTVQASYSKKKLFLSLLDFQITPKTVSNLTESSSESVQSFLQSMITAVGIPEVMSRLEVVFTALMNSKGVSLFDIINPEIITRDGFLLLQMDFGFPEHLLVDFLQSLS
The experiment in a line: CETP fluorescence test. It counts as biochemical. The conditions noted are these: CETP from human plasma, 37° C., 4 hours; read-out: IC50 (nM) Fluor. test. The method, then:
CETP is obtained in partially purified form from human plasma by differential centrifugation and column chromatography and used for the test. To this end, human plasma is adjusted to a density of 1.21 g per ml using NaBr and centrifuged at 4° C. at 50000 rpm for 18 h. The bottom fraction (d>1.21 g/ml) is applied to a Sephadex® Phenyl-Sepharose 4B (Pharmacia) column, washed with 0.15 M NaCl/0.001 M tris HCl pH 7.4 and then eluted with dist. water. Die CETP-active fractions are pooled, dialysed against 50 mM Na acetate pH 4.5 and applied to a CM-Sepharose® (Pharmacia) column. The mixture is then eluted using a linear gradient (0-1 M NaCl). The pooled CETP fractions are dialysed against 10 mM TrisHCl pH 7.4 and then further purified by chromatography on a Mono Q® column (Pharmacia).
Measurement of the CETP-catalysed transfer of a fluorescent cholesterol ester between liposomes—modified according to the procedure of Bisgaier et al., J. Lipid Res. 34, 1625 (1993).
For the production of the donor liposomes, 1 mg of cholesteryl 4,4-difluoro-5,7-dimethyl-4-bora-3a,4a-diaza-s-indacene-3-dodecanoate (cholesteryl BODIPY® FL C12, Molecular Probes) is dissolved in 600 μl of dioxane with 5.35 mg of triolein and 6.67 mg of phosphatidylcholine with gentle warming in an ultrasonic bath and this solution is added very slowly with ultrasonication to 63 ml of 50 mM tris/HCl, 150 mM NaCl, 2 mM EDTA buffer pH 7.3 at RT.
The suspension is then ultrasonicated under an N2 atmosphere for 30 minutes in the Braukson ultrasonic bath at about 50 watts, the temperature being kept at about 20° C.
The acceptor liposomes are obtained analogously from 86 mg of cholesteryl oleate, 20 mg of triolein and 100 mg of phosphatidylcholine dissolved in 1.2 ml of dioxane and 114 ml of above buffer by ultrasonication at 50 watts (20° C.) for 30 minutes.
For testing, a test mix consisting of 1 part of above buffer, 1 part of donor liposomes and 2 parts of acceptor liposomes is used.
80 μl of test mix are treated with 1-3 μg of enriched CETP fraction, obtained from human plasma by means of hydrophobic chromatography, and 2 μl of the substance to be investigated in DMSO and incubated at 37° C. for 4 hours.
The change in the fluorescence at 485/535 nm is a measure of the CE transfer; the inhibition of the transfer in comparison to the control batch without substance is determined.

Experiment [1] addresses T2, CETP activity in the serum (Homo sapiens, UniProt P11597).
T2 construct: determination of its basal CETP activity in the serum; from tissue; host or cells: serum of transgenic hCETP mice
T2 sequence (P11597 18-493): T1 sequence (P11597 18-493)
The experiment in a line: Ex vivo activities on transgenic hCETP mice (serum CETP activity after oral administration). Conditions: mouse, cholesteryl ester transport in serum. The method, then:
To test for CETP-inhibitory activity, the substances are administered orally using a stomach tube to transgenic hCETP mice of our own breeding (Dinchuk et al. BBA (1995) 1295-301). To this end, male mice are randomly assigned to groups having an equal number of animals, as a rule n=3, one day before the start of the experiment. Before administration of the substance, blood is taken from each mouse by puncture of the retroorbital venous plexus for the determination of its basal CETP activity in the serum (T1). The test substance is then administered to the animals using the stomach tube. At specific times after administration of the test substance, blood is taken from the animals by puncture a second time (T2), as a rule 1, or 3 and 6 h after substance administration, but if appropriate this can also be carried out at another time.
In order to be able to assess the inhibitory activity of a substance, for each time, i.e. 1 or 3 or 6 h, a corresponding control group is employed whose animals only receive the formulating agent without substance. In the control animals, the second blood sampling per animal is carried out as in the substance-treated animals in order to be able to determine the change in the CETP activity without inhibitor over the corresponding experimental time interval (1, 3 or 6 h).
After termination of the clotting, the blood samples are centrifuged and the serum is removed by pipette.
For the determination of the CETP activity, the cholesteryl ester transport over 4 h is determined. To this end, as a rule 2 μl of serum are employed in the test batch and the test is carried out as described under “CETP fluorescence test”.
The differences in the cholesteryl ester transport (pM CE*/h (T2)−pM CE*/h (T1)) are calculated for each animal and averaged in the groups. A substance which at one of the times reduces the cholesteryl ester transport by >30% is regarded as active.

The mark [2] stands for this setting: 1 h after administration, read-out: % inhibition at 30 mg/kg, 1 h.
Where [3] appears, read: 3 h after administration, read-out: % inhibition at 30 mg/kg, 3 h.
Where [4] appears, read: 6 h after administration, read-out: % inhibition at 30 mg/kg, 6 h.

The term IC50 denotes the point on the concentration scale where inhibition reaches its midpoint. Take `CC(C)c1nc2c(c(-c3ccccc3)c1[C@@H](O)c1ccc(C(F)(F)F)cc1)[C@@H](O)CC1(CCC1)C2` [Example 53, (5S)-2-Isopropyl-4-phenyl-3-[(S)-hydroxy-(4-trifluoromethylphenyl)-methyl]-7-spirocyclobutyl-5,6,7,8-tetrahydroquinolin-5-ol]: on CETP, the half-maximal inhibitory concentration (IC50) came out at 30 nM. Further, the inhibition at 30 mg/kg is 69% in experiment [1] (setting [2]), 51% in experiment [1] (setting [3]) and 44% in experiment [1] (setting [4]).

As to `CC(C)c1nc2c(c(-c3cccs3)c1[C@@H](O)c1ccc(C(F)(F)F)cc1)[C@@H](O)CC1(CCC1)C2` [Example 61, (5S)-2-Isopropyl-4-(2-thienyl)-3-[(S)-hydroxy-(4-trifluoromethylphenyl)-methyl]-7-spirocyclobutyl-5,6,7,8-tetrahydroquinolin-5-ol], the IC50 at CETP came to 30 nM. The inhibition at 30 mg/kg in experiment [1] (setting [2]) worked out at 71%; in experiment [1] (setting [3]) it was 49%; in experiment [1] (setting [4]) it was 35%.

On to `CC(C)c1nc2c(c(-c3ccc(F)cc3)c1[C@@H](O)c1ccc(C(F)(F)F)cc1)[C@@H](O)CC1(CCC1)C2` [Example 51, (5S)-2-Isopropyl-4-(4-fluorophenyl)-3-[(S)-hydroxy-(4-trifluoromethylphenyl)-methyl]-7-spirocyclobutyl-5,6,7,8-tetrahydroquinolin-5-ol], for which the IC50 at CETP amounted to 12 nM. Further, the inhibition at 30 mg/kg was found to be 72% in experiment [1] (setting [2]), 64% in experiment [1] (setting [3]) and 60% in experiment [1] (setting [4]).
